Experiments:
Type in all cases: in vivo, chicken
[1] = tested on: plasma CPK (creatine phosphokinase); experiment: Plasma CPK
Experimental: (§1) Chemotherapy was assessed by application of seven different parameters: physical tests of muscular disability, namely the flip test and wing apposition (W.A.) measurements; biochemical assays of serum and muscle enzume levels of creatine phosphokinase (CPK), pyruvate kinase (PK) and acetylcholinesterase (AChE); and histological comparisons of treated and untreated muscle. Toxicity studies (weight loss, etc.) were also used. A very comprehensive profile of the drug was thus obtained which related to all the known, highly characteristic features of the disease which are applicable to both the animal model and the human.
Plasma CPK rises dramatically in the dystrophic chicken as it does also in the human disease. The normal chicken has 200-300 U/l CPK, compared to about 20,000 U/l in the untreated dystrophic chicken at its peak. It rises to these high levels over a period of two months and is, therefore, a significant index of the disease. […]
Finally, oral therapy with IAPP was undertaken at gradually increasing dosages up to 1 g/Kg/day. The parameters (physical, biochemical and histological) measured previously were again used to test the efficacy of the drug; five different dosages were used orally, each being given for 30-60 days, daily (Tables VII-XI). A total of 75 animals were treated in the current study with IAPP and 70 control animals were used.

[2] = tested on: normal 412 muscle explants; experiment: Microtubule complexes in muscle explants of injected normal chickens
Source text: Essentially, these experiments were divided into three subgroups, taken from the previous Table:
413A, 413B, 412A, 412B: All were sacrificed after 4 injections and muscle explants placed in culture.
413C, 412C: All were sacrificed after 8 injections and muscle explants were placed in culture.
413D, 412D: All were sacrificed after 10 injections and muscle explants placed in culture.
All explants were placed in CMRL culture medium containing 5% horse serum, 15% fetal bovine serum and 1% antibiotics and allowed to grow for 5-7 days before being fixed and observed for the presence or absence of microtubules. No IAPP was added to the culture medium during the 5-7 days in culture.

[3] = tested on: dystrophic New Hampshire chickens, line 413; experiment: Overall assessment of chemotherapy over all parameters measured
Experimental: The compound IAPP was tested on dystrophic New Hampshire chickens, line 413, and Imperial College (London, England) sub-line of the original Davis, University of California strain. The chickens are homozygous for muscular dystrophy, the disease appearing with 100% incidence.
as §1, with “human. […]” for “human.”

[4] = 200 mg/Kg i.p. daily for 30 days, day 28 ex ovo
[5] = 200 mg/Kg i.p. daily for 30 days, day 45 ex ovo
[6] = 200 mg/Kg i.p. daily for 30 days, day 56 ex ovo
[7] = 200 mg/Kg i.p. daily for 30 days, day 84 ex ovo
[8] = 300 mg/Kg i.p. daily for 30 days, day 28 ex ovo
[9] = 300 mg/Kg i.p. daily for 30 days, day 45 ex ovo
[10] = 300 mg/Kg i.p. daily for 30 days, day 56 ex ovo
[11] = 300 mg/Kg i.p. daily for 30 days, day 84 ex ovo
[12] = 300 mg/Kg i.p. three times weekly for 30 days, day 28 ex ovo
[13] = 300 mg/Kg i.p. three times weekly for 30 days, day 45 ex ovo
[14] = 300 mg/Kg i.p. three times weekly for 30 days, day 84 ex ovo
[15] = Table VII, oral 200 mg/Kg, 60 days, day 28 ex ovo
[16] = Table VII, oral 200 mg/Kg, 60 days, day 35 ex ovo
[17] = Table VII, oral 200 mg/Kg, 60 days, day 45 ex ovo
[18] = Table VII, oral 200 mg/Kg, 60 days, day 60 ex ovo
[19] = oral 300 mg/Kg daily, day 28 ex ovo
[20] = oral 300 mg/Kg daily, day 35 ex ovo
[21] = oral 450 mg/Kg daily for 45 days, day 28 ex ovo
[22] = oral 450 mg/Kg daily for 45 days, day 35 ex ovo
[23] = oral 450 mg/Kg daily for 45 days, day 50 ex ovo
[24] = oral 600 mg/Kg daily, day 28 ex ovo
[25] = oral 600 mg/Kg daily, day 35 ex ovo
[26] = oral 600 mg/Kg daily, day 50 ex ovo
[27] = oral 1 g/Kg daily, day 28 ex ovo
[28] = oral 1 g/Kg daily, day 35 ex ovo
[29] = 200 mg/Kg i.p. daily for 28 days
[30] = oral 1 g/Kg daily, first four weeks

## CC(C)Nc1ncccn1.O=P(O)(O)O [IAPP, 2-isopropylaminopyrimidine orthophosphate]
[1]; [4]
  CPK: 478 mU/ml
  CPK, % change from control: -61%
[1]; [5]
  CPK: 4810 mU/ml
  CPK, % change from control: -40%
[1]; [6]
  CPK: 5412 mU/ml
  CPK, % change from control: -48%
[1]; [7]
  CPK: 13,540 mU/ml
  CPK, % change from control: -36%
[1]; [8]
  CPK: 651 mU/ml
  CPK, % change from control: -46%
[1]; [9]
  CPK: 4505 mU/ml
  CPK, % change from control: -44%
[1]; [10]
  CPK: 7629 mU/ml
  CPK, % change from control: -27%
[1]; [11]
  CPK: 24,248 mU/ml
  CPK, % change from control: +15%
[1]; [12]
  CPK: 651 mU/ml
  CPK, % change from control: -46%
[1]; [13]
  CPK: 6076 mU/ml
  CPK, % change from control: -24%
[1]; 300 mg/Kg i.p. three times weekly for 30 days, day 56 ex ovo
  CPK: 7944 mU/ml
[1]; [14]
  CPK: 16,602 mU/ml
  CPK, % change from control: -21%
[1]; Exp. 2, 40 mg/Kg i.p. daily, day 7-13
  % CPK Change vs untreated dystrophic controls: -8%
[1]; Exp. 2, 40 mg/Kg i.p. daily, day 14-20
  % CPK Change vs untreated dystrophic controls: -46%
[1]; Exp. 2, 40 mg/Kg i.p. daily, day 21-27
  % CPK Change vs untreated dystrophic controls: -21%
[1]; Exp. 2, 40 mg/Kg i.p. daily, day 28-34
  % CPK Change vs untreated dystrophic controls: -59%
[1]; Exp. 2, 40 mg/Kg i.p. daily, day 35-41
  % CPK Change vs untreated dystrophic controls: -57%
[1]; Exp. 2, 40 mg/Kg i.p. daily, day 42-48
  % CPK Change vs untreated dystrophic controls: -72%
[1]; Exp. 2, 40 mg/Kg i.p. daily, day 56-62
  % CPK Change vs untreated dystrophic controls: -47%
[1]; Exp. 2, 40 mg/Kg i.p. daily, day 63-71
  % CPK Change vs untreated dystrophic controls: -32%
[1]; Exp. 3, 70 mg/Kg i.p. daily, day 21-27
  % CPK Change vs untreated dystrophic controls: -51%
[1]; Exp. 3, 70 mg/Kg i.p. daily, day 28-34
  % CPK Change vs untreated dystrophic controls: -53%
[1]; [15]
  CPK: 3496 mU/ml
  CPK, % change from control: -31%
[1]; [16]
  CPK: 7336 mU/ml
  CPK, % change from control: -1%
[1]; [17]
  CPK: 9638 mU/ml
  CPK, % change from control: -18%
[1]; [18]
  CPK: 10,860 mU/ml
  CPK, % change from control: -24%
[1]; oral 200 mg/Kg, 60 days
  Reduction in plasma CPK levels: moderate reduction
[1]; [19]
  CPK: 3794 mU/ml
  CPK, % change from control: -23%
[1]; [20]
  CPK: 6690 mU/ml
  CPK, % change from control: -30%
[1]; [21]
  CPK: 4713 mU/ml
  CPK, % change from control: -18%
[1]; [22]
  CPK: 6483 mU/ml
  CPK, % change from control: -24%
[1]; [23]
  CPK: 17,975 mU/ml
  CPK, % change from control: +30%
[1]; [24]
  CPK: 2658 mU/ml
  CPK, % change from control: -53%
[1]; [25]
  CPK: 4712 mU/ml
  CPK, % change from control: -45%
[1]; [26]
  CPK: 9084 mU/ml
  CPK, % change from control: -34%
[1]; [27]
  CPK: 2217 mU/ml
  CPK, % change from control: -63%
[1]; [28]
  CPK: 4018 mU/ml
  CPK, % change from control: -68%
[2]; 412B, Subgroup A, after 4 injections of 50 mg/Kg, 412A control 86%
  % Full Complexes Microtubules: 73%
[2]; 412C, Subgroup B, after 8 injections of 50 mg/Kg
  % Full Complexes Microtubules: 76%
[2]; 412D, Subgroup C, after 10 injections of 50 mg/Kg
  % Full Complexes Microtubules: 80%
[3]; [29]
  Physical performance: not significantly improved
  Reduction in plasma enzyme levels: large reduction in plasma enzume levels
[3]; 200 mg/Kg i.p., CPK, PK, AChE reduced from control values
  Persistence of enzyme reduction after injections ceased: 56 days
[3]; 300 mg/Kg i.p. daily
  Plasma enzyme activities: greatly reduced
[3]; 300 mg/Kg i.p. three times weekly
  Persistence of reduced plasma enzyme levels after treatment ceased: 56 days
[3]; 300 mg/Kg three times weekly
  Reductions in plasma enzyme levels vs daily therapy: very comparable reductions in plasma enzyme levels
[3]; Exp. 1, 30 mg/Kg i.p. daily
  Difference between treated and dystrophic control animals, parameters measured: no significant differents
[3]; Exp. 2, 40 mg/Kg
  Flip number and wing apposition: significant improvement
[3]; Exp. 2, 40 mg/Kg i.p. daily
  Effect on all parameters measured: significant effect of IAPP on all parameters measured
[3]; Exp. 2, 40 mg/Kg, effect declining at end of 10-week experiment
  CPK, PK and AChE enzyme levels: reduced dramatically
[3]; Gallus gallus, ip, read-out: Minimum concentration found effective
  minimal effective dose: 40 mg/kg
[3]; oral 200 mg/Kg, 60 days
  Effect on physical performance parameters: no effect
[3]; oral 600 mg/Kg
  Enzyme levels and physical performance: significant reductions in enzyme levels and improvements in physical performance
[3]; [30]
  Physical performance parameters: greatly improved
  Reduction in enzyme levels: highly significant reduction in enzyme levels
[3]; oral, daily for 35 days, chicken
  Effective oral dosage: 1 g/kg

Source: patent US4416885A, “Use of isopropylaminopyrimidine in the chemotherapy of muscular dystrophy, myopathy and myotonia” (priority 1982, dated 1983)
